Measured values from patent publication US20250188082A1, “Use of Hypoxanthine Compound In Preparation of Drug For Treating Pulmonary Fibrosis” (Sichuan Yiasuo Pharmaceutical Technology Co., Ltd., priority 2022, published 2025).

How the values were obtained:
Format in all cases: in vivo, C57BL/6 mice
[1] = system: influenza A virus-induced pulmonary fibrosis model (FM1 strain of influenza A (H1N1) virus); test: Influenza A virus-induced pulmonary fibrosis model; details: 120 mg/kg/d intragastric, 14 days; for Ashcroft scores: influenza A virus + bleomycin, lung tissue HE; for IL-1β / IL-6 / NF-κB / TNF-α: serum, influenza A (H1N1) FM1 + bleomycin, from two weeks after model
Description: Experimental method: an in-vivo influenza A virus-induced pulmonary fibrosis model was established: C57BL/6 mice (with weights being 22-25 g) were randomly and evenly divided into a plurality of groups, including blank control group, model group, Nintedanib positive control group, hypoxanthine analogue A group, hypoxanthine analogue B group, hypoxanthine analogue C group, compound 1 group, compound 2 group . . . compound 12 group, with 9 mice in each group. On Day 1, the mice in blank control group were instilled with normal saline nasally, and the mice in other groups were all infected with a FM1 strain of an influenza A (H1N1) virus 30 (μL) through nasal instillation. On Day 2, the mice received 5 mg/kg bleomycin through tracheas to induce their pulmonary fibrosis. After the model was established for two weeks, the mice in each group were intragastrically administrated for intervention for consecutive 14 days; the mice in blank control group and model group intragastrically received the same dosage of the normal saline as those in drug groups; the mice in Nintedanib positive control group received Nintedanib (120 mg/kg); the mice in hypoxanthine analogue A group, hypoxanthine analogue B group and hypoxanthine analogue C group respectively received hypoxanthine analogue A (120 mg/kg/d), hypoxanthine analogue B (120 mg/kg/d) and hypoxanthine analogue C (120 mg/kg/d); and the mice in compound 1 group, compound 2 group . . . compound 12 group respectively received compound 1 (120 mg/kg/d), compound 2 (120 mg/kg/d) . . . compound 12 (120 mg/kg/d) prepared in example 1. After administration for consecutive 14 days, the mice were observed every day, and their weights and death conditions were recorded. After administration, blood was taken from eyeballs for immediately detecting the expression levels of NF-κB, TNF-α, IL-1 and IL-6 in serum, and lung tissues were taken for HE detection and Ashcroft scoring.

[2] = system: bleomycin-induced pulmonary fibrosis model; test: Advanced pulmonary fibrosis: bleomycin-induced model, dosing from three weeks after modelling; details: for Leucocyte / Lymphocyte / Neutrophil / Ashcroft scores: advanced pulmonary fibrosis, 120 mg/kg/d intragastric, 14 days, from three weeks after model; for Leucocyte / Lymphocyte / Neutrophil: blood, Day 15, twice every day; for Ashcroft scores: lung tissue HE staining
[3] = system: novel coronavirus-induced pulmonary fibrosis model (COVID-19 novel coronavirus strains); test: Novel coronavirus-induced pulmonary fibrosis model; details: 120 mg/kg/d intragastric, 14 days; for Ashcroft scores: novel coronavirus + bleomycin, lung tissue HE; for IL-1β / IL-6 / NF-κB / TNF-α: serum, COVID-19 novel coronavirus + bleomycin, from two weeks after model
Description: Experimental method: an in-vivo novel coronavirus-induced pulmonary fibrosis model was established: C57BL/6 mice (with weights being 22-25 g) were randomly and evenly divided into a plurality of groups, including blank control group, model group, Nintedanib positive control group, hypoxanthine analogue A group, hypoxanthine analogue B group, hypoxanthine analogue C group, compound 1 group, a compound 2 group . . . compound 12 group, with 9 mice in each group. On Day 1, the mice in blank control group were instilled with normal saline nasally, and the mice in other groups were all infected with COVID-19 novel coronavirus strains (30 μL) through nasal instillation. On Day 2, the mice received 5 mg/kg bleomycin through tracheas to induce their pulmonary fibrosis. After the model was established for two weeks, the mice in each group were intragastrically administrated for intervention for consecutive 14 days; the mice in blank control group and model group intragastrically received the same dosage of normal saline as those in drug groups; the mice in Nintedanib positive control group received Nintedanib (120 mg/kg); the mice in hypoxanthine analogue A group, hypoxanthine analogue B group and hypoxanthine analogue C group respectively received hypoxanthine analogue A (120 mg/kg/d), hypoxanthine analogue B (120 mg/kg/d) and hypoxanthine analogue C (120 mg/kg/d); and the mice in compound 1 group, compound 2 group . . . compound 12 group respectively received compound 1 (120 mg/kg/d), compound 2 (120 mg/kg/d) . . . compound 12 (120 mg/kg/d) prepared in example 1. After administration for consecutive 14 days, the mice were observed every day, and their weights and death conditions were recorded. After administration, blood was taken from eyeballs for immediately detecting the expression levels of NF-κB, TNF-α, IL-1 and IL-6 in serum, and lung tissues were taken for HE detection and Ashcroft scoring.

[4] = system: mycoplasma-induced pulmonary fibrosis model (MPFH strain); test: Mycoplasma-induced pulmonary fibrosis model; details: 120 mg/kg/d intragastric, 14 days; for Leucocyte / Lymphocyte / Neutrophil: MPFH mycoplasma + bleomycin, once a day, from two weeks after model; for Ashcroft scores: mycoplasma + bleomycin, lung tissue HE
Description: Experimental method: an in-vivo mycoplasma-induced pulmonary fibrosis model was established: C57BL/6 mice (with weights being 22-25 g) were randomly and evenly divided into a plurality of groups, including blank control group, model group, Nintedanib positive control group, hypoxanthine analogue A group, hypoxanthine analogue B group, hypoxanthine analogue C group, compound 1 group, compound 2 group . . . compound 12 group, with 9 mice in each group. Before a model was established, the mice were anesthetized with diethyl ether. In addition to that the mice in blank control group with instilled with 100 μL of normal saline nasally, the mice in other groups with slowly instilled with an equal volume of a MPFH strain solution (containing 1×10^7 mL^−1 MPFH strain) to the nasal cavity, for consecutive 3 days, and inhaled the MPFH strain solution into bronchi. After instillation with mycoplasmas through tracheas, the mice received 5 mg/kg bleomycin through tracheas to induce their pulmonary fibrosis. After the model was established for two weeks, the mice in each group were intragastrically administrated for intervention for consecutive 14 days; the mice in blank control group and model group intragastrically received an equal dosage of normal saline as those in drug groups; the mice in Nintedanib positive control group received Nintedanib (120 mg/kg); the mice in hypoxanthine analogue A group, hypoxanthine analogue B group and hypoxanthine analogue C group respectively received hypoxanthine analogue A (120 mg/kg/d), hypoxanthine analogue B (120 mg/kg/d) and hypoxanthine analogue C (120 mg/kg/d); and the mice in compound 1 group, compound 2 group . . . compound 12 group respectively received compound 1 (120 mg/kg/d), compound 2 (120 mg/kg/d) . . . compound 12 (120 mg/kg/d) prepared in example 1. The mice were administrated once a day to be treated for consecutive 14 days. The mice were observed every day, and their weights and death conditions were recorded. On the last day of administration, the mice were sacrificed; and blood was taken from eyeballs and kept at −80° C. for detecting blood routine indexes. Meanwhile, lungs were lavaged with normal saline and separated to collect lavage fluids for detecting counts and classes of leucocytes; and lung tissues were taken for HE straining and Ashcroft scoring on the extent of pulmonary fibrosis.

[5] = system: bleomycin-induced pulmonary fibrosis model; test: Comparison with comparative drugs: bleomycin-induced model, hydroxyproline and TGF-β; details: 120 mg/kg/d intragastric, twice every day, 14 days, from two weeks after model; Day 15

Row | Structure (SMILES) | Hydroxyproline in bronchoalveolar lavage fluids [5] [µg/mg] | Hydroxyproline in lung tissues [5] [µg/mg] | TGF-β in bronchoalveolar lavage fluids [5] [µg/L] | TGF-β in lung tissues [5] [µg/L] | Ashcroft scores [1] | IL-1β [1] [pg/mL] | IL-6 [1] [pg/mL] | NF-κB [1] [pg/mL] | TNF-α [1] [pg/mL] | Leucocyte [2] | Lymphocyte [2] | Neutrophil [2] | Ashcroft scores [3] | IL-1β [3] [pg/mL] | NF-κB [3] [pg/mL] | TNF-α [3] [pg/mL] | Leucocyte [4] | Lymphocyte [4] | Neutrophil [4] | Ashcroft scores [4] | also measured
1 | COc1ncnc2c1ncn2C(C)C [Hypoxanthine analogue C, reference compound] | 1.12 ± 0.15 | 2.85 ± 0.25 | 7.42 ± 1.4 | 63.83 ± 7.52 |  |  |  |  |  |  |  |  |  |  |  |  |  |  |  |  | Ashcroft scores ([1]; 120 mg/kg/day): 6.09; IL-1β ([1]; 120 mg/kg/day): 338.1 pg/mL; IL-6 ([1]; 120 mg/kg/day): 450.0 pg/mL; NF-κB ([1]; 120 mg/kg/day): 782.1 pg/mL; TNF-α ([1]; 120 mg/kg/day): 333.1 pg/mL; Leucocyte ([2]; 120 mg/kg/day): 72.55 10^9/L; Lymphocyte ([2]; 120 mg/kg/day): 70.88 10^9/L; Neutrophil ([2]; 120 mg/kg/day): 59.66 10^9/L; Ashcroft scores ([2]; 120 mg/kg/day): 6.06; inhibition (anti-inflammatory) effect on leucocytes, neutrophils and lymphocytes in blood ([2]; mice with advanced pulmonary fibrosis, result in words): obviously inferior; Ashcroft scores ([3]; 120 mg/kg/day): 6.71; IL-1β ([3]; 120 mg/kg/day): 572.7 pg/mL; IL-6 ([3]; 120 mg/kg/day): 543.7 pg/mL; NF-κB ([3]; 120 mg/kg/day): 739.2 pg/mL; TNF-α ([3]; 120 mg/kg/day): 542.4 pg/mL; Leucocyte ([4]; 120 mg/kg/day): 120.98 10^9/L; Lymphocyte ([4]; 120 mg/kg/day): 571.34 10^9/L; Neutrophil ([4]; 120 mg/kg/day): 238.07 10^9/L; Ashcroft scores ([4]; 120 mg/kg/day): 6.41
2 | CCCOc1ncnc2c1ncn2C(C)C [Compound 9] | 0.73 ± 0.09 | 1.41 ± 0.09 | 4.05 ± 0.14 | 25.65 ± 2.16 | 1.33 | 28.4 | 65.8 | 27.1 | 91.1 | 4.69 10^9/L | 5.69 10^9/L | 1.46 10^9/L | 1.34 | 39.6 | 22.9 | 68.8 | 6.79 10^9/L | 73.19 10^9/L | 22.06 10^9/L | 1.38 | Ashcroft scores [2]: 1.11; IL-6 [3]: 69.1 pg/mL
3 | CC(=O)Oc1ncnc2c1ncn2C(C)C [Compound 11] | 0.75 ± 0.05 | 1.43 ± 0.11 | 4.02 ± 0.15 | 23.98 ± 2.19 | 1.26 | 27.9 | 64.6 | 26.6 | 88.7 | 4.22 10^9/L | 5.57 10^9/L | 1.39 10^9/L | 1.31 | 37.2 | 26.7 | 69.0 | 6.70 10^9/L | 73.25 10^9/L | 22.47 10^9/L | 1.50 | Ashcroft scores [2]: 1.07
4 | COc1ncnc2c1ncn2C(C)C [Compound 7] | 0.69 ± 0.08 | 1.42 ± 0.14 | 4.02 ± 0.15 | 25.15 ± 2.53 | 1.28 | 29.0 | 65.3 | 26.4 | 91.2 |  |  |  | 1.15 | 39.9 | 24.6 | 67.5 | 7.15 10^9/L | 73.29 10^9/L | 21.45 10^9/L | 1.25 | Leucocyte ([2]; 120 mg/kg/day): 4.61 10^9/L; Lymphocyte ([2]; 120 mg/kg/day): 5.65 10^9/L; Neutrophil ([2]; 120 mg/kg/day): 1.44 10^9/L; Ashcroft scores ([2]; 120 mg/kg/day): 1.13; IL-6 [3]: 66.4 pg/mL
5 | CC(C)Oc1ncnc2nc[nH]c12 [Compound 5] | 0.69 ± 0.09 | 1.43 ± 0.07 | 3.93 ± 0.18 | 24.18 ± 1.65 |  | 28.1 | 65.6 | 27.7 | 90.2 | 4.34 10^9/L | 5.74 10^9/L | 1.36 10^9/L | 1.11 | 37.5 | 24.3 | 66.1 | 6.86 10^9/L | 74.39 10^9/L | 21.91 10^9/L | 1.23 | Ashcroft scores [2]: 1.22; IL-6 [3]: 66.4 pg/mL
